Where a name gives a salt, the structure may show the parent alone.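 Exposure lasted 48 hours, with cells grown in 96-well plates and compounds tested at five concentrations. GI50 marks 50% less growth.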 Active and inactive are the calls of the source. Cut-off read from the data, not from the text of the source: active = GI50 up to about 1.1 µM and inactive = higher. Bounds are passed on as bounds.

We go through ten compounds from ChEMBL document CHEMBL1201862, “PubChem BioAssay data set” (2004).

Among the test systems are Hs-578T; CAKI-1; MDA-MB-435; DU-145; SNB-75; SK-MEL-28; SK-MEL-2; SF-268; BT-549; K562; SK-MEL-5; LOX IMVI; M14; NCI-H460; PC-3; HL-60; SF-539; A549; RXF 393.
Holding throughout (experiment): growth of human tumour cells (NCI), 48 h

Consider `O=[N+]([O-])c1cc(-c2nc(-c3ccccc3)c(-c3ccccc3)[nH]2)c(O)c([N+](=O)[O-])c1`, for which the GI50 is 27.4 µM (inactive) in the test on Hs-578T; 27.4 µM (inactive) in the test with CAKI-1; 32.6 µM (inactive) in the test with MDA-MB-435; 21.9 µM (inactive) in the test on DU-145; 23 µM (inactive) in the test with SNB-75; 31.7 µM (inactive) with SK-MEL-28. For the same compound, the GI50 in the test on SK-MEL-2 was 19.9 µM (inactive); with SF-268, 30.1 µM (inactive); with BT-549 it was 20 µM (inactive); in the test on K562 it was 30.8 µM (inactive); in the test with SK-MEL-5, 17.7 µM (inactive); in the test with LOX IMVI, 23.6 µM (inactive). In addition, the GI50 was 21.1 µM (inactive) in the test with M14; 21.5 µM (inactive) with NCI-H460; 20.3 µM (inactive) in the test on PC-3; 25.6 µM (inactive) with HL-60; 19.5 µM (inactive) in the test on SF-539; 34.4 µM (inactive) in the test with A549. Besides, the GI50 with RXF 393 is 17.4 µM (inactive).

For the compound `O=C(N/N=C/c1ccc2c(c1)CCC2)c1ccccc1O`, the GI50 in the test with Hs-578T was 22.9 µM (inactive); in the test with CAKI-1, 28.4 µM (inactive); in the test with MDA-MB-435, 21.5 µM (inactive); in the test on DU-145 it was 48 µM (inactive); with SNB-75, 16.8 µM (inactive); with SK-MEL-28, 23.5 µM (inactive). Besides, the GI50 was 23.4 µM (inactive) with SK-MEL-2; 23.8 µM (inactive) in the test on SF-268; 19.3 µM (inactive) in the test with BT-549; 38.9 µM (inactive) with K562; 33.9 µM (inactive) in the test on SK-MEL-5; 27.8 µM (inactive) in the test on LOX IMVI. Further, the GI50 is 30 µM (inactive) in the test on M14; 22.1 µM (inactive) in the test on NCI-H460; 19.7 µM (inactive) in the test with PC-3; 23.2 µM (inactive) with HL-60; 31.5 µM (inactive) in the test with SF-539; 21.2 µM (inactive) in the test on A549. For the same compound, in the test with RXF 393, the GI50 is 23 µM (inactive).

For the compound `C=CCN(CCNS(=O)(=O)c1ccc(C)cc1)S(=O)(=O)c1ccc(C)cc1`, the GI50 was > 52.4 µM (inactive) in the test on Hs-578T; 87.9 µM (inactive) in the test with CAKI-1; > 57.9 µM (inactive) in the test with MDA-MB-435; 54.6 µM (inactive) with DU-145; 15.1 µM (inactive) in the test on SNB-75; > 91.4 µM (inactive) with SK-MEL-28. Further, the GI50 was 34 µM (inactive) with SK-MEL-2; 10.4 µM (inactive) in the test on SF-268; 22.4 µM (inactive) in the test with BT-549; > 54.1 µM (inactive) in the test on K562; 6.17 µM (inactive) with SK-MEL-5; 17.3 µM (inactive) in the test with LOX IMVI. Further, the GI50 was 14 µM (inactive) with M14; 9.46 µM (inactive) in the test on NCI-H460; > 48 µM (inactive) in the test on PC-3; 21.9 µM (inactive) in the test with HL-60; 75.9 µM (inactive) with SF-539; 13.9 µM (inactive) in the test on A549. Besides, the GI50 in the test with RXF 393 is > 67.6 µM (inactive).

As for `O=C1c2cccc3cccc(c23)C(=O)N1CCCNCCCCNCCCNCCCN1C(=O)c2cccc3cccc(c23)C1=O` [BISNAPHTHALIMIDOPROPYL SPERMIDINE TRIHYDROBROMIDE], the GI50 with Hs-578T is 0.0378 µM (active); in the test with CAKI-1, 4.01 µM (inactive); in the test on MDA-MB-435, 0.74 µM (active); in the test with DU-145, 0.371 µM (active); in the test with SNB-75, 0.319 µM (active); with SK-MEL-28 it was 1.39 µM (inactive). Moreover, the GI50 is 1.22 µM (inactive) in the test on SK-MEL-2; 0.282 µM (active) in the test on SF-268; 1.64 µM (inactive) in the test on BT-549; 0.557 µM (active) in the test on K562; 2.02 µM (inactive) in the test with SK-MEL-5; 0.316 µM (active) with LOX IMVI. Further, the GI50 with M14 was 1.52 µM (inactive); in the test with NCI-H460 it was 0.323 µM (active); with PC-3, 0.535 µM (active); in the test with HL-60, 0.172 µM (active); in the test with SF-539, 0.585 µM (active); with A549 it was 0.301 µM (active). In the test with RXF 393, the GI50 is 0.473 µM (active).

For the compound `C[C@H](CCC(=O)O[C@@H]1CC[C@@]2(C)C(CC[C@H]3[C@@H]4CC[C@H]([C@H](C)CCc5nc6ccccc6[nH]5)[C@@]4(C)CC[C@@H]32)C1)[C@H]1CC[C@H]2[C@@H]3CCC4C[C@H](O)CC[C@]4(C)[C@H]3CC[C@]12C` (stereo not given in full), the GI50 was 0.494 µM (active) in the test on Hs-578T; > 31.3 µM (inactive) in the test with CAKI-1; > 100 µM (inactive) with MDA-MB-435; > 100 µM (inactive) in the test with DU-145; 3.97 µM (inactive) with SNB-75; > 100 µM (inactive) in the test on SK-MEL-28. For the same compound, the GI50 with SK-MEL-2 is > 100 µM (inactive); with SF-268 it was 5.38 µM (inactive); with BT-549, > 100 µM (inactive); with K562, > 100 µM (inactive); in the test on SK-MEL-5 it was > 100 µM (inactive); in the test with LOX IMVI, 3.95 µM (inactive). In addition, the GI50 was > 100 µM (inactive) in the test on M14; 0.518 µM (active) in the test on NCI-H460; > 100 µM (inactive) with PC-3; > 100 µM (inactive) with HL-60; > 100 µM (inactive) in the test on SF-539; > 100 µM (inactive) in the test with A549. Besides, in the test with RXF 393, the GI50 was > 100 µM (inactive).

Consider `CC#CC(=O)SCCNC(=O)CC`, for which the GI50 is > 10 µM (inactive) with Hs-578T; > 10 µM (inactive) in the test with CAKI-1; 7.24 µM (inactive) in the test with MDA-MB-435; > 10 µM (inactive) in the test with DU-145; > 10 µM (inactive) with SNB-75; > 8.71 µM (inactive) with SK-MEL-28. Moreover, the GI50 with SK-MEL-2 was > 10 µM (inactive); in the test on SF-268 it was > 10 µM (inactive); in the test with BT-549, 3.81 µM (inactive); with K562, > 5.38 µM (inactive); in the test on SK-MEL-5 it was 8.39 µM (inactive); in the test on LOX IMVI it was 3.31 µM (inactive). Moreover, the GI50 is > 8.05 µM (inactive) in the test on M14; > 10 µM (inactive) in the test with NCI-H460; > 10 µM (inactive) with PC-3; > 5.57 µM (inactive) with HL-60; 9.02 µM (inactive) in the test with SF-539; > 10 µM (inactive) in the test with A549. The GI50 in the test with RXF 393 was 4.53 µM (inactive).

As for `COc1ccc(C(=O)Cn2c(C(C)=O)nc3ccccc32)cc1`, the GI50 in the test on Hs-578T is 23.2 µM (inactive); with CAKI-1 it was 7.21 µM (inactive); in the test with MDA-MB-435, 13.5 µM (inactive); in the test with DU-145, 30.7 µM (inactive); in the test on SNB-75, > 100 µM (inactive); in the test on SK-MEL-28, > 46.7 µM (inactive). The GI50 in the test with SK-MEL-2 was 12.7 µM (inactive); with SF-268, > 64.9 µM (inactive); with BT-549, 8.45 µM (inactive); with K562, 4.4 µM (inactive); in the test with SK-MEL-5, 4.15 µM (inactive); in the test on LOX IMVI it was 2.91 µM (inactive). Moreover, the GI50 is 17.5 µM (inactive) in the test on M14; 4.21 µM (inactive) in the test on NCI-H460; 6.98 µM (inactive) in the test on PC-3; 3.41 µM (inactive) with HL-60; > 53.5 µM (inactive) in the test with SF-539; 5.31 µM (inactive) in the test on A549. Moreover, the GI50 with RXF 393 is > 56.4 µM (inactive).

With `CCOC(=O)NC(Nc1cccc(C(F)(F)F)c1)(C(F)(F)F)C(F)(F)F`, the GI50 with Hs-578T, in the test with CAKI-1, in the test with MDA-MB-435, with DU-145, in the test with SNB-75 and in the test with SK-MEL-28 was > 100 µM (inactive) in each case. The GI50 with SK-MEL-2, with SF-268, with BT-549, with K562, in the test on SK-MEL-5 and in the test with LOX IMVI was > 100 µM (inactive) in each case. The GI50 with M14, in the test on NCI-H460, with PC-3, with HL-60, in the test with SF-539 and in the test on A549 was > 100 µM (inactive) each time. The GI50 in the test with RXF 393 is > 100 µM (inactive).

Regarding `Cc1cc(N)c2ccccc2[n+]1CCCCCCCCCC[n+]1c(C)cc(N)c2ccccc21` [DEQUALINIUM CHLORIDE], the GI50 is 1.96 µM (inactive) in the test on Hs-578T; 7.06 µM (inactive) in the test with CAKI-1; 0.541 µM (active) in the test on MDA-MB-435; 2.74 µM (inactive) with DU-145; 0.986 µM (active) in the test with SNB-75; 0.879 µM (active) in the test with SK-MEL-28. Moreover, the GI50 with SK-MEL-2 is 1.89 µM (inactive); in the test on SF-268 it was 1.39 µM (inactive); in the test with BT-549, 1 µM (active); with K562 it was 0.379 µM (active); in the test on SK-MEL-5, 0.528 µM (active); in the test on LOX IMVI, 1.11 µM (active). Also, the GI50 with M14 is 2.59 µM (inactive); in the test on NCI-H460, 0.54 µM (active); in the test with PC-3, 1.07 µM (active); in the test with HL-60, 0.533 µM (active); in the test on SF-539, 1.83 µM (inactive); in the test with A549 it was 0.887 µM (active). Also, the GI50 in the test with RXF 393 was 10.4 µM (inactive).

As for `Cc1cc(C)nc(NS(=O)(=O)c2ccc(NNc3c4ccccc4nc4c(C(=O)Nc5ccc(S(=O)(=O)Nc6ncccn6)cc5)cccc34)cc2)n1`, the GI50 in the test with Hs-578T is 71.8 µM (inactive); with CAKI-1, 36.3 µM (inactive); with MDA-MB-435 it was 21.5 µM (inactive); with DU-145 it was 31.8 µM (inactive); in the test with SNB-75 it was 37.5 µM (inactive); in the test with SK-MEL-28, 29.5 µM (inactive). In addition, the GI50 was 16.2 µM (inactive) in the test with SK-MEL-2; 31.9 µM (inactive) in the test on SF-268; 36.8 µM (inactive) with BT-549; 28.6 µM (inactive) in the test with K562; 21.2 µM (inactive) with SK-MEL-5; 20.7 µM (inactive) with LOX IMVI. For the same compound, the GI50 is 33.7 µM (inactive) in the test on M14; 25.6 µM (inactive) with NCI-H460; 26.5 µM (inactive) with PC-3; 25.7 µM (inactive) with HL-60; 27 µM (inactive) in the test on SF-539; 38.7 µM (inactive) in the test with A549. In addition, the GI50 in the test with RXF 393 is 35.3 µM (inactive).
